# Experimental data from US10729659B2, “Nanogel-mediated drug delivery” (The Cleveland Clinic Foundation, priority 2012, dated 2020).
# Columns and labels:
# MCF-7/Adr cells [1] = assay: Microarray gene expression analysis; type: cell-based, human; conditions: decitabine vs untreated MCF-7/Adr
# Description: Microarray analysis was performed using the standard protocol provided by IlluminaCorporation (San Diego, Calif.). […] 20 μL of nuclease free water containing total RNA at the concentration of 100 ng/μL was stored at −80° C. Approximately […] of total RNA was subjected to gene expression array study using Illuminahuman 6v2 chip. The array-hybridization and scanning of array images were performed at the Cleveland Clinic Genomics Core. The microarray scanned image and intensity files were imported into Illumina Bead Studio Analysis software version 3.2.6 (Illumina Inc.). Error models were applied and ratios were built for each treatment array versus its respective vehicle control. For qPCR analysis, RNA isolated from treated and untreated cells were converted into cDNA using Mo-MLV reverse transcriptase (Promega Inc., USA) according to manufacturers' instructions. Taqman expression primers (Applied Biosystems Inc., USA) and ABI PRISM Sequence Detection Instrument 7700 (Applied Biosystems Inc., USA) were used for real-time reverse transcription-PCR (RT-PCR). Fold change in target genes was calculated about the human glyceraldehyde 3-phosphate dehydrogenase (GAPDH).
# MCF-7/Adr cells [2] = assay: Cellular uptake of dox; type: cell-based, human; conditions: DAC 50 ng/mL 24 h, then dox 1 μg/mL; 15 min to 12 h
# Description: Drug resistant breast cancer cells were seeded in 24 well plates (1.2×10^6 cells/well). Post 48 h seeding, cells were pre-treated with DAC (50 ng/mL; 24 h); and then incubated with fixed concentration of dox (1 μg/mL) for indicated time points. Post drug incubation cell lysates in RIPA buffer was collected and lyophilized. Dox was extracted from lyophilized cell lysates using methanol as the solvent and analyzed by HPLC.
# P-gp = assay: Western blot of P-gp expression in MCF-7/Adr cells; type: cell-based, human
# Source text: Proteins ([…]) from DAC treated or untreated cell lysates in RIPA buffer were probed for mouse monoclonal P-glycoprotein (calbiochem) and mouse anti-actin (Sigma-Aldrich, St. Louis, Mo.). Blotting and detection of the indicated proteins were done as per standard western blot protocol.
# MDA-MB 231 cells = assay: Physical characterization of exosomes from DAC treated cells; type: cell-based, human; conditions: exosomes from cells treated with DAC 0.5 μM, 24 h
# Description: Exosome isolation protocol: MDA-MB 231 cells were grown in DMEM supplemented with 10% fetal bovine serum (FBS), and 1% antibiotics. Prior to use in cell culture; the cell culture medium was depleted of endogenous exosomes present in FBS. Exosomes depleted media were prepared by 16 h of ultracentrifugation of cell culture medium supplemented with 50% FBS at 100, 000×g and filtered through 0.2 μm filter. Through out this process sterile conditions were maintained.
# To isolate the exosomes from cells treated with DAC, cells were cultured in 10 cell culture dishes (150×25 mm), When the cells were at 70% confluency, the cells were washed with 1×PBS, re-fed with endogenous exosomes depleted media containing DAC (0.5 μM) and incubated for 24 h. Because of small production of exosomes from cultured cells, culture media from all the DAC treated plates were pooled for exosome isolation. All the exosome isolation procedures were done at 4° C. Culture supernatants were first centrifuged at 300×g for 10 min to pellet the cells. To remove the dead cells, supernatant was centrifuged at 2,000×g for 15 min (Sorvall Legend RTcentrifuge, Thermo Electron Corp. Waltham, Mass.). Supernatant was pipetted off and transferred to pre-cooled polycarbonate tubes appropriate for 50.1Ti fixed angle ultracentrifugation rotor (Beckman Coulter Inc., Fullerton, Calif., USA) and centrifuged at 10,000×g for 30 min to remove cell debris. Pellet was discarded and supernatant was aliquoted to several ultracentrifuge tubes and centrifuged at 110,000×g for 70 min to pellet exosomes. Supernatant was discarded. The pellet in each tube was re-suspended in 1 mL PBS and pooled in to single ultracentrifuge tube and centrifuged at 110,000×g for 70 min. […]
# Five micro-liter of PFA fixed exosome suspension was dropped on 200 mesh formvar—carbon coated EM grid (grid size: 97 μm) (TEDPELLA, Redding, Calif., USA) and exosomes were allowed to adsorb to the grids by drying the suspension at room temperature for 20-30 min. […] From TEM images sizes of exosomes were measured using Image J software.
# [3] = cited from earlier work
smiles,measurement,setting,value
"Nc1ncn([C@H]2C[C@H](O)[C@@H](CO)O2)c(=O)n1 [DAC, 5-aza-2′-deoxycytidine]",Fold Change 48 h,"MCF-7/Adr cells [1]; gene CDKN1A (p21, Cip1)",3.6 fold
same,Fold Change 48 h,MCF-7/Adr cells [1]; gene CST6,52.8 fold
same,Fold Change 48 h,MCF-7/Adr cells [1]; gene DPEP3,−87.8 fold
same,Fold Change 48 h,MCF-7/Adr cells [1]; gene DPPA2,−11.2 fold
same,Fold Change 48 h,MCF-7/Adr cells [1]; gene GAGE2,1754.4 fold
same,Fold Change 48 h,MCF-7/Adr cells [1]; gene GAGE5,1358.9 fold
same,Fold Change 48 h,MCF-7/Adr cells [1]; gene GAGE6,813.8 fold
same,Fold Change 48 h,MCF-7/Adr cells [1]; gene GAGE7B,907.8 fold
same,Fold Change 48 h,MCF-7/Adr cells [1]; gene GAGE8,411.0 fold
same,Fold Change 48 h,MCF-7/Adr cells [1]; gene IL23A (p19),3.02 fold
same,Fold Change 48 h,MCF-7/Adr cells [1]; gene MAGEA4,4.7 fold
same,Fold Change 48 h,MCF-7/Adr cells [1]; gene MMP9,−215.1 fold
same,Fold Change 48 h,MCF-7/Adr cells [1]; gene PAGE 4,11.6 fold
same,Fold Change 48 h,MCF-7/Adr cells [1]; gene PAGE5,25.4 fold
same,Fold Change 48 h,MCF-7/Adr cells [1]; gene PAK3,2.7 fold
same,Fold Change 48 h,MCF-7/Adr cells [1]; gene PNMA5,−19.8 fold
same,Fold Change 48 h,MCF-7/Adr cells [1]; gene PYCARD,23.6 fold
same,Fold Change 48 h,MCF-7/Adr cells [1]; gene RASD1,35.6 fold
same,Fold Change 48 h,MCF-7/Adr cells [1]; gene SOCSI,28.2 fold
same,Fold Change 48 h,MCF-7/Adr cells [1]; gene SOX15,10.2 fold
same,Fold Change 48 h,MCF-7/Adr cells [1]; gene STK31,1663.3 fold
same,Fold Change 48 h,MCF-7/Adr cells [1]; gene TFF2,−16.8 fold
same,Fold Change 48 h,MCF-7/Adr cells [1]; gene THY1,103.1 fold
same,Fold Change 48 h,MCF-7/Adr cells [1]; gene TMEM101,33.7 fold
same,Fold Change 48 h,MCF-7/Adr cells [1]; gene ZFP42,−22.5 fold
same,Uptake of dox in DAC pre-treated cells vs dox alone,MCF-7/Adr cells [2],higher increase in uptake of dox
same,Decrease in P-gp protein expression vs untreated cells,P-gp; day 1,45%
same,P-gp expression,P-gp; day 3,returned to normal levels
same,Hydrodynamic diameter of exosomes,MDA-MB 231 cells,495 nm
same,PI of exosomes,MDA-MB 231 cells,0.61
same,Exosome size by transmission electron micrograph,MDA-MB 231 cells; in nm (unit assumed),97.2±8.0
same,Half-life,[3]; in humans,10 to 35 min
same,Clearance,[3]; in vivo,very high clearance
